Data taken from ChEMBL document CHEMBL3875218, “Bifunctional conjugates with potent inhibitory activity towards cyclooxygenase and histone deacetylase” (Bioorg Med Chem, 2017).

How the values were obtained:
[1] = molecular target: T1, Prostaglandin G/H synthase 2 (Homo sapiens, UniProt P35354); experiment: Inhibition of recombinant human COX2 using arachidonic acid as substrate preincubated for 15 mins followed by substrate addition for 2 mins by Cayman based fluorescence assay
T1 sequence (P35354 whole entry): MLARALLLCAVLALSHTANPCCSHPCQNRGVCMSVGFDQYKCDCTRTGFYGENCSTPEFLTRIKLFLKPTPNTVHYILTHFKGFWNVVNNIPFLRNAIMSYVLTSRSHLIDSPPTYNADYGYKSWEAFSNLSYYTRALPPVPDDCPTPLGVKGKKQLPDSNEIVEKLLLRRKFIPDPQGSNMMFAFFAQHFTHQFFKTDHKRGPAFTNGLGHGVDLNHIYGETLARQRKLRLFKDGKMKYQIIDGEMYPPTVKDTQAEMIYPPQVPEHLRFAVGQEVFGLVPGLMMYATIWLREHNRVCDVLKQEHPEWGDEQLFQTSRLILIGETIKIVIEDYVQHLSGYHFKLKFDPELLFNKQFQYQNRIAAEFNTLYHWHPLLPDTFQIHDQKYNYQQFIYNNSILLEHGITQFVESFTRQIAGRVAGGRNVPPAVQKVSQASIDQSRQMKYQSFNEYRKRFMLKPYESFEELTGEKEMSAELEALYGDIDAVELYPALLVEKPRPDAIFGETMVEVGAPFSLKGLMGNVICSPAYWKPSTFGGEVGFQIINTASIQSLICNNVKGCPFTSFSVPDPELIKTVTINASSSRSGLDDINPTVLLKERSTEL

[2] = molecular target: Histone deacetylase 1 (Homo sapiens, UniProt Q13547); experiment: Inhibition of HDAC1 (unknown origin) after 24 hrs by SAMDI mass spectroscopic analysis
[3] = molecular target: Histone deacetylase 2 (Homo sapiens, UniProt Q92769); experiment: Inhibition of HDAC2 (unknown origin) after 24 hrs by SAMDI mass spectroscopic analysis
[4] = molecular target: Histone deacetylase 3 (Homo sapiens, UniProt O15379); experiment: Inhibition of HDAC3 (unknown origin) after 5 hrs by SAMDI mass spectroscopic analysis
[5] = molecular target: T2, Protein deacetylase HDAC6 (Homo sapiens, UniProt Q9UBN7); experiment: Inhibition of HDAC6 (unknown origin) after 20 hrs by SAMDI mass spectroscopic analysis
T2 sequence (Q9UBN7 whole entry): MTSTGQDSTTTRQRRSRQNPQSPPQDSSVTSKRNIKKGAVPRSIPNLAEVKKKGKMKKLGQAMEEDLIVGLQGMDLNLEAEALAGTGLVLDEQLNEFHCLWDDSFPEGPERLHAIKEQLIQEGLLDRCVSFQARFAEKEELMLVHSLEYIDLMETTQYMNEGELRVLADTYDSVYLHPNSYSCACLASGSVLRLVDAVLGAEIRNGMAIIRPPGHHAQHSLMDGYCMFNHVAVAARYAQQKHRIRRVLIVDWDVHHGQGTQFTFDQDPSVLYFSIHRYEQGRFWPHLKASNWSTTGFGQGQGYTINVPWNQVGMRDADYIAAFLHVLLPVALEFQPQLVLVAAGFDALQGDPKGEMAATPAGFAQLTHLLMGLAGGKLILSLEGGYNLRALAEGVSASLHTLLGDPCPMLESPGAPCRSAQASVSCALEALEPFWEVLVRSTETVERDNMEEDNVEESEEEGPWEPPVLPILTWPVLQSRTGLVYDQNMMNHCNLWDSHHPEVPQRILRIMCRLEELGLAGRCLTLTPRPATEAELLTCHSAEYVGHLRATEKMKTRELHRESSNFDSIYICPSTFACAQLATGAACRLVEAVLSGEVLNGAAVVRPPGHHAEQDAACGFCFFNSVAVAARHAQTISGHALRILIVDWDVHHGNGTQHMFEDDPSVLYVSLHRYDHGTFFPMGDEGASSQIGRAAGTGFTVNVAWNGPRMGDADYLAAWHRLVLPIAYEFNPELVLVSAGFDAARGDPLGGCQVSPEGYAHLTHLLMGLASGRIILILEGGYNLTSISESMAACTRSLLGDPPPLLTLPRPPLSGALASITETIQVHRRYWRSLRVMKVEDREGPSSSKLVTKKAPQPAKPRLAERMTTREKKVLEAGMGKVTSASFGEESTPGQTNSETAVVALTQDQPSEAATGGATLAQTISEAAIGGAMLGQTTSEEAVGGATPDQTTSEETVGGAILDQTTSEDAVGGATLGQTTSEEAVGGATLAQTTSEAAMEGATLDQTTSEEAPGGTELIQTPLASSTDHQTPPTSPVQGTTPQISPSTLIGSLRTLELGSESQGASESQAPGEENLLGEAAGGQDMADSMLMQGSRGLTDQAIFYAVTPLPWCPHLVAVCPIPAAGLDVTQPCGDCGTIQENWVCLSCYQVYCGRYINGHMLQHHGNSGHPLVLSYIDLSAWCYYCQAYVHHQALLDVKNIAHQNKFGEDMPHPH

[6] = molecular target: T3, Histone deacetylase 8 (Homo sapiens, UniProt Q9BY41); experiment: Inhibition of HDAC8 (unknown origin) after 2.5 hrs by SAMDI mass spectroscopic analysis
T3 sequence (Q9BY41 whole entry): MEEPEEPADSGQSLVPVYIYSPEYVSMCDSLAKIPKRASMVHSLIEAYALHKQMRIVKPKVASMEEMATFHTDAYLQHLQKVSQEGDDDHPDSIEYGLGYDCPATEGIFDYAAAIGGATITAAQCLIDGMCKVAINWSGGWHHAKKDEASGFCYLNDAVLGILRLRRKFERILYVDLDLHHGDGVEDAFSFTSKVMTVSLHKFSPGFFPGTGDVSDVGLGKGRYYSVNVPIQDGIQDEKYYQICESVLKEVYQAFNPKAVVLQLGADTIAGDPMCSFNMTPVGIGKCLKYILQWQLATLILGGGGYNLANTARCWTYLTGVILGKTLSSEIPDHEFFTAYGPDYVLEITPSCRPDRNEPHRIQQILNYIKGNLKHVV

[7] = Cytotoxicity against human HeLa cells assessed as cell growth inhibition after 72 hrs by MTT assay
[8] = molecular target: T4, Protein deacetylase HDAC6 (Homo sapiens) (UniProt Q9UBN7); experiment: Inhibition of HDAC6 in human LNCAP cells assessed as acetylated tubulin accumulation in cytosol after 24 hrs by Western blot analysis; assay type: cell-based
T4 sequence (whole entry): T2 sequence (Q9UBN7 whole entry)

[9] = system: LNCaP; experiment: Inhibition of class 1 HDAC in human LNCAP cells assessed as acetylated histone H4 accumulation after 24 hrs by Western blot analysis; assay type: cell-based
[10] = system: LNCaP; experiment: Induction of cell cycle arrest in human LNCAP cells assessed as accumulation at G1 phase at 2.5 uM after 24 hrs by propidium iodide staining based FACS analysis (reference value: 69.5%); assay type: functional
[11] = system: LNCaP; experiment: Induction of cell cycle arrest in human LNCAP cells assessed as accumulation at greater G2 phase at 2.5 uM after 24 hrs by propidium iodide staining based FACS analysis (reference value: 0.20%); assay type: functional

Chain of Histone deacetylase 2 (Q92769 whole entry): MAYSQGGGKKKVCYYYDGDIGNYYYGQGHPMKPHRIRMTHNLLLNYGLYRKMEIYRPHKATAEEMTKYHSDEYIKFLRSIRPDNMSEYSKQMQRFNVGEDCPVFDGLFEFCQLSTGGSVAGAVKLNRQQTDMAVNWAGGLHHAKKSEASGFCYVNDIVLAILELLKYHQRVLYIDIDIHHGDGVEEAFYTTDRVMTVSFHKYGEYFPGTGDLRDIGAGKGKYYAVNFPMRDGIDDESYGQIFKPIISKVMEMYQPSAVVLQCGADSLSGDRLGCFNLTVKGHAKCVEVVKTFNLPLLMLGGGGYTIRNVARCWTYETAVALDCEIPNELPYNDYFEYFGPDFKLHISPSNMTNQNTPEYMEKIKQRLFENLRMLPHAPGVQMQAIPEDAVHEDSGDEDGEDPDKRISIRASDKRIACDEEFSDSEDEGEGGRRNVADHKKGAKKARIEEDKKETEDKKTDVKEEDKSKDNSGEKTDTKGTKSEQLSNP
Chain of Histone deacetylase 3 (O15379 whole entry): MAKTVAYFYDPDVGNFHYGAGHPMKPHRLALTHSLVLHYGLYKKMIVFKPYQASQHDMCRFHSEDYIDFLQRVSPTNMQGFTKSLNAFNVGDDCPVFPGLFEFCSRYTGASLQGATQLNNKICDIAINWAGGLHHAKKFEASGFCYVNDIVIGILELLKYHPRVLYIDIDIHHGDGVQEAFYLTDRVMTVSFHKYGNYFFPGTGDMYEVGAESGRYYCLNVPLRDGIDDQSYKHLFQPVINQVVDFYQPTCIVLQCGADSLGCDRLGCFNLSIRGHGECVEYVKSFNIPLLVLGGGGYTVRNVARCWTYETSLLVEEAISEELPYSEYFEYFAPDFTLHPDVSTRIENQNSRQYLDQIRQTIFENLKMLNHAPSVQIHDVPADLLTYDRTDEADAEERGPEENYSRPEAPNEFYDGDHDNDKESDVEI
Chain of Histone deacetylase 1 (Q13547 whole entry): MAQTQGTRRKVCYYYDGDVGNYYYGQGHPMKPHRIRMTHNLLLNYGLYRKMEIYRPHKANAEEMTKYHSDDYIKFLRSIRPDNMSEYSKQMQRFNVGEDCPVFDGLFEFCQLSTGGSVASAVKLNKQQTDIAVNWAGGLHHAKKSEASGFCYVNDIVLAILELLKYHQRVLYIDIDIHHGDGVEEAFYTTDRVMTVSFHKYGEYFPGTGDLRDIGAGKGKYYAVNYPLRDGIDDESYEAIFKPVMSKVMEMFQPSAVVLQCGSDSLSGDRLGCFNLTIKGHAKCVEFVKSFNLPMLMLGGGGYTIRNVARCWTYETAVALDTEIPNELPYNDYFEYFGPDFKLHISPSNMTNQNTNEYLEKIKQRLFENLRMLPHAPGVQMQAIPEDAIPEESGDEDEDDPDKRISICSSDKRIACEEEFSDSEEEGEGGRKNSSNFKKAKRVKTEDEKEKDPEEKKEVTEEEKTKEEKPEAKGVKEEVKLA

| Compound | IC50 [1] [nM] | IC50 [2] [nM] | IC50 [3] [nM] | IC50 [4] [nM] | IC50 [5] [nM] | IC50 [6] [nM] | IC50 [7] [nM] | inhibition [8] | inhibition [9] | Activity [10] [%] | Activity [11] [%] |
| --- | --- | --- | --- | --- | --- | --- | --- | --- | --- | --- | --- |
| COc1ccc2c(c1)c(CC(=O)NCCCCCCC(=O)NO)c(C)n2C(=O)c1ccc(Cl)cc1 | 330 | 980 | 854 | 356 | 49 | 109 | 8870 | Dose-dependent effect | Dose-dependent effect | 62.5 | 0.35 |
| Cc1ccc(-c2cc(C(F)(F)F)nn2-c2ccc(S(=O)(=O)NCCCCCCC(=O)NO)cc2)cc1 | 300 | 1030 | 4050 | 424 | 66 | 412 | 6500 | Dose-dependent effect | Dose-dependent effect | 57.4 | 1.67 |
